Laboratory results from patent EP1673354B1, “ARYLINDENOPYRIDINES AND ARYLINDENOPYRIMIDINES AND THEIR USE AS ADENOSINE A2A RECEPTOR ANTAGONISTS” (Ortho-McNeil Pharmaceutical, Inc., priority 2003, dated 2005).

Experiments:
Adenosine A1 receptor = biological target: T1, Adenosine A1 receptor (Homo sapiens, UniProt P30542); assay: A1 antagonist function (no method described); assay type: cell-based
T1 sequence (P30542 1-326): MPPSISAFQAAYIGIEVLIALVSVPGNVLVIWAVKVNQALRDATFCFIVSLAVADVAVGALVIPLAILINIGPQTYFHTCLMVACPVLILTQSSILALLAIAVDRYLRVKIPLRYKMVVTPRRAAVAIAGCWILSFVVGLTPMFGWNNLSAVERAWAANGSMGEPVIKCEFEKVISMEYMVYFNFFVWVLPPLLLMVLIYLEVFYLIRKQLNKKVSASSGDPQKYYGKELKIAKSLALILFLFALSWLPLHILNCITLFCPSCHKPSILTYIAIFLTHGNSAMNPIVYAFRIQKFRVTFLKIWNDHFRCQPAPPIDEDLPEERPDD

[1] = biological target: T2, human adenosine A2a receptors (Homo sapiens, UniProt P29274); assay: Adenosine A2a receptor functional assay, antagonist mode (cAMP-inducible beta-galactosidase reporter, 50 nM NECA); assay type: cell-based; settings: CHO-K1 cells, read-out: Ki (nM) A2a antagonist function
T2 construct: expressed in transfected cells; host or cells: CHO-K1 cells with cAMP-inducible beta-galactosidase reporter gene
Protocol: Adenosine A2a Receptor Functional Assay
CHO-K1 cells overexpressing human adenosine A2a receptors and containing cAMP-inducible beta-galactosidase reporter gene were seeded at 40-50K/well into 96-well tissue culture plates and cultured for two days. On assay day, cells were washed once with 200 µL assay medium (F-12 nutrient mixture/0.1 % BSA). For agonist assay, adenosine A2a receptor agonist NECA was subsequently added and cell incubated at 37°C, 5% CO2 for 5 hrs before stopping reaction. In the case of antagonist assay, cells were incubated with antagonists for 5 minutes at R.T. followed by addition of 50 nM NECA. Cells were then incubated at 37°C, 5% CO2 for 5 hrs before stopping experiments by washing cells with PBS twice. 50 µL 1X lysis buffer (Promega, 5X stock solution, needs to be diluted to 1X before use) was added to each well and plates frozen at -20°C. For β-galactosidase enzyme colorimetric assay, plates were thawed out at room temperature and 50 µL 2X assay buffer (Promega) added to each well. Color was allowed to develop at 37°C for 1 h or until reasonable signal appeared. Reaction was then stopped with 150 µL 1 M sodium carbonate. […] Data was analyzed in Microsoft Excel and GraphPad Prism programs.

C57bl/6 mice = assay: Haloperidol-induced catalepsy study in C57bl/6 mice; assay type: in vivo; settings: orally dosed at 10 mg/kg; haloperidol 1.5 mg/kg s.c.; test 1 hour after oral dose
Protocol: Haloperidol-induced catalepsy study in C57bl/6 mice
Mature male C57bl/6 mice (9-12 week old from ACE) were housed two per cage in a rodent room. Room temperature was maintained at 64-79 degrees and humidity at 30-70% and room lighting at 12 hrs light/12 hrs dark cycle. On the study day, mice were transferred to the study room. The mice were injected subcutaneously with haloperidol (Sigma H1512, 1.0 mg/ml made in 0.3% tartaric acid, then diluted to 0.2 mg/ml with saline) or vehicle at 1.5 mg/kg, 7.5ml/kg. The mice were then placed in their home cages with access to water and food. 30 minutes later, the mice were orally dosed with vehicle (0.3% Tween 80 in saline) or compounds at 10 mg/kg, 10 ml/kg (compounds, 1mg/ml, made in 0.3% Tween 80 in saline, sonicated to obtain a uniform suspension). The mice were then placed in their home cages with access to water and food. 1 hour after oral dose, the catalepsy test was performed. A vertical metal-wire grid (1.0 cm squares) was used for the test. The mice were placed on the grid and given a few seconds to settle down and their immobility time was recorded until the mice moved their back paw(s). The mice were removed gently from the grid and put back on the grid and their immobility time was counted again. The measurement was repeated three times. The average of three measurements was used for data analysis.

[2] = biological target: T3, human A2a adenosine receptor (Homo sapiens, UniProt P29274); assay: Ligand binding assay for adenosine A2a receptor ([3H]CGS21680, HEK293 plasma membrane); settings: radioligand [3H]CGS21680, HEK293 membranes, room temperature 2 hours; read-out: Ki (nM) A2a binding
T3 construct: purchased PerkinElmer RB-HA2a; host or cells: HEK293 cell plasma membrane
Protocol: Ligand Binding Assay for Adenosine A2a Receptor
Ligand binding assay of adenosine A2a receptor was performed using plasma membrane of HEK293 cells containing human A2a adenosine receptor (PerkinElmer, RB-HA2a) and radioligand [^3H]CGS21680 (PerkinElmer, NET1021). Assay was set up in 96-well polypropylene plate in total volume of 200 µl by sequentially adding 20 µL1:20 diluted membrane, 130 µLassay buffer (50 mM Tris·HCl, pH7.4 10 mM MgCl2, 1 mM EDTA) containing [^3H] […] Nonspecific binding was determined by […] NECA. Reaction was carried out at room temperature for 2 hours before filtering through 96-well GF/C filter plate pre-soaked in 50 mM Tris·HCl, pH7.4 containing 0.3% polyethylenimine. Plates were then washed 5 times with cold 50 mM Tris·HCl, pH7.4, dried and sealed at the bottom. Microscintillation fluid 30 µl was added to each well and the top sealed. Plates were counted on Packard Topcount for [^3H]. Data was analyzed in Microsoft Excel and GraphPad Prism programs.

T2 sequence (P29274 whole entry): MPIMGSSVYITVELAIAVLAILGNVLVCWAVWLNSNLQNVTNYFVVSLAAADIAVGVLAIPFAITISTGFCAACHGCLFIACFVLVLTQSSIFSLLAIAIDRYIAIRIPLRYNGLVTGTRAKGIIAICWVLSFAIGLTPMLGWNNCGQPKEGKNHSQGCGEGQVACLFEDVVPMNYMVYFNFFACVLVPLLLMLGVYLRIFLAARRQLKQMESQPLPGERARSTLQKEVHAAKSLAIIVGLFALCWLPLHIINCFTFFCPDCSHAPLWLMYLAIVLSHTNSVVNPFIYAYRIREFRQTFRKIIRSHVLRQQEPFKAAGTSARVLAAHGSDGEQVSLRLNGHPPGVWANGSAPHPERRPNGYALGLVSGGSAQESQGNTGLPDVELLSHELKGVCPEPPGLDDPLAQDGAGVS
T3 sequence (P29274 whole entry): as above

Ki (Adenosine A1 receptor): 20.1 nM
Ki [1]: 0.44 nM
Ki [2]: 9.89 nM
Compound: CN(C)CCOC(=O)c1c(N)nc(-c2ccco2)c2c1-c1ccccc1C2=O [Compound 70, 9H-indeno[2,1-c]pyridine-4-carboxylic acid, 3-amino-1-furan-2-yl-9-oxo-, 2-dimethylamino-ethyl ester]
inhibition of haloperidol-induced catalepsy (C57bl/6 mice): 87%
